The values that follow come from US9725430B2, “Use of small molecule inhibitors targeting EYA tyrosine phosphatase” (Children's Hospital Medical Center, priority 2013, dated 2017).

The structures appear in SMILES notation.

For data set [1], the system named is HUVECs. Kind of data set: HUVEC tubulogenesis on Matrigel. Type of data set: cell-based, human. The conditions noted are these: for tube formation on Matrigel: HUVEC. From the text:
Primary endothelial cells (ECs) on basement membrane rapidly attach, align themselves and form capillary-like tubules with lumens and tight cell-cell contacts. […] To better understand the stage in matrigel tube-formation affected by compound 1g cells plated on growth-factor reduced matrigel and treated with either vehicle or compound 1g were followed. Differences become apparent within the first two hours and were clearly visible at the 6-hour time-point. The ECs are much less organized in the presence of compound 1g. […] The effect of compound 1g on tube formation was attenuated in the presence of high concentrations of fetal bovine serum (FBS), likely reflecting non-specific protein binding.
The EYA inhibitors were also tested in tubulogenesis assays. The tubulogenesis assays were performed in 15-well micro-slide (ibidi LLC, Verona Wis.), using growth factor-reduced matrigel (BD Bioscience, Billerica, Mass.). The matrix was prepared by loading 10 μl of matrigel in each micro-slide well and allowing it to solidify for 30 minutes at 37° C. HUVECs were trypsinized and resuspended at 100.000 cell/ml in EBM+2.5% FBS. 50 μl (5,000 cell) were loaded on top of the solidified matrigel and the preparation was incubated for 20 hours at 37° C. in a humidified incubator in a 5% CO2 atmosphere. Bright field images were taken using an inverted microscope at 2.5× magnification, which allowed imaging of the whole well in two pictures that were later merged in Photoshop. Tubular structures were traced and counted using NeuroJ (NIH, USA). In experiments with inhibitor, the inhibitor was added to the cell suspension before loading. Each sample was loaded in triplicate, and each treatment was repeated for reproducibility.

The target in another data set is PTP1B (Homo sapiens (Human), UniProt P18031). Kind of data set: PTP1B-catalyzed pNPP hydrolysis. Type of data set: biochemical. Particulars: pNPP substrate. The procedure: The catalytic domain of human Eya2 (“hEYA2(ED)”) was similarly sub-cloned as a polyhistidine fusion construct in the vector pDEST-527. Fusion protein was purified by NiNTA chromatography and followed by size-exclusion chromatography over a Superdex-75 column. The relative purity of protein samples was determined using SDS-PAGE. PTP1B was purified as described previously (Rayapureddi, J. P. et al. Nature 426, 295-298 (2003), incorporated by reference in its entirety).
An inhibitory assay was conducted using the previously described p-nitrophenylphosphate assay (Rayapureddi, J. P. et al. Nature 426, 295-298 (2003)). Briefly, ED was incubated in a reaction mixture containing 20 mM MES pH 6, 2 mM MgCl2, 125 μM inhibitor, 3.4 mM para-nitrophenol phosphate (pNPP) and 0.01 μg/μL enzyme.
PTP1B is a classical Cys-based tyrosine phosphatase.

For another data set, the system named is MCF10A(EYA2) cells. Kind of data set: Transwell migration of MCF10A-EYA2 cells. The data set is classed as cell-based. The conditions noted are these: 7.5 μM. From the text: The tyrosine phosphatase activity of Eya3 and Eya2 promotes single cell motility in breast cancer cells (Pandey, R. N. et al. Oncogene (2010) 29:3715-3722, incorporated by reference in its entirety). EYA2 is over-expressed in breast cancers and is associated with increased metastasis and a poorer outcome (Farabaugh, et al. Oncogene (2011) 259). […] Overexpression of EYA2, but not the tyrosine-phosphatase dead mutant, promoted cell motility (FIG. 2a). […] This effect was dose-dependent (FIG. 2d) and compound (1a) was able to reduce cell motility by over 50% at the lowest concentration (1 μM) tested.
(§1) In order to determine whether EYA3 knock down would affect cell migration, a modified Boyden chamber assay was used to measure HUVEC migration. Briefly, human umbilical vein endothelial cells (HUVECs) were purchased from Lonza (Walkersville, Md.) and maintained in the endothelial cell growth medium (PromoCell, Hleidelberg, Germany), under a 5% CO2 atmosphere. MCF10A cells from ATCC were stably transfected with either pcDNA 3.2N5-DEST (vector control), V5-EYA2 or V5-EYA2(D250N). Transwell migration experiments were performed as previously described (Pandey, R. N. et al. Oncogene 29, 3715-3722, (2010)).

In another data set the test system is mouse aortic rings. Kind of data set: Aortic ring sprouting assay. Type of data set: cell-based. The procedure: Additionally, the effect of compounds 1d, 1f, 1h, 1i, 1g, 2 and 2a on cell proliferation, migration, tube formation, micro-vessel branching, and perivascular recruitment using an aortic ring sprouting assay. When slices of mouse aorta are cultured in collagen gels there is typically a lag phase for the first 4 days followed by linear sprouting of endothelial cells. By day 6, branching is observed. All the test compounds were initially assayed at 7.5 μM and the number of branch-points counted. When there was a severe effect (no visible sprouting), or when there was no apparent effect, other doses were tested to establish a dose-dependence. All of the compounds assayed were able to attenuate aortic ring sprouting. There was a strong reduction in initial sprouting and some attenuation of branching. With the exception of 2a, in all cases where there was sprouting, the length of sprouts was shorter than in the controls.
Endothelial cell migration can also be studied […] using the aortic ring assay in which sprouting angiogenesis is monitored by the formation of vascular sprouts outside the wall of mouse aortic rings incubated in collagen matrix and stimulated by VEGF (Gerhardt, H., et al. EXS, 3-15 (2005), hereby incorporated by reference in its entirety). Briefly, mice were obtained from the Cincinnati Children's veterinary service and handled according to the institutional animal care and use protocol. […] Mice were 4 to 6 weeks old female C57BL16, and aortic ring explants were cultured at 37° C. in a humidified incubator under a 5% CO2 atmosphere.
Each inhibitor was serially diluted (between 0.25 mM and 7.5 mM) to stocks of 1000× the working concentrations in sterile 100% DMSO in order to achieve an equal final concentration of DMSO (0.1% v/v) in all culture conditions. For the experiments, the compounds were diluted in EBM containing 2.5% FBS, penicillin/streptomycin and 20 ng/ml VEGF165 (R&D Systems, Minneapolis, Minn.). Each compound was applied from the first day of culture over a 10-day period with medium change every two days. In all experiments, the vehicle (DMSO, 0.1%) was used as control. The sprouting density was derived from counting the number of branches per ring, and the extent of angiogenic sprouting was estimated by measuring the total surface area covered by the vessels as illustrated in FIG. 7.

Data set [2] deals with HUVECs. The data set is described as follows: HUVEC transwell migration. The data set is classed as cell-based, human. The conditions noted are these: 5 μM.
Text: as §1

Data set [3] has as its system HUVECs. The data set is described as follows: HUVEC proliferation (MTT). The conditions noted are these: 5 μM, 24 hours. Type of data set: cell-based, human.
The test system of data set [4] is developing zebrafish vasculature. Kind of data set: Zebrafish model of angiogenesis. Type of data set: in vivo. The conditions noted are these: exposure from 5.25 hpf, analysis at 24 hpf; compound 1 at 0.25 μM. Here is the method:
Embryos (FLK1-GFP trangenic) were maintained in fish water until the 50% epiboly stage (5.25 hpf) and were transferred into wells of 24-well plate containing the inhibitors in fish water. The analysis for vascular defects was performed after the 24 hpf stage, and embryos were imaged using a fluorescence microscope.
Transgenic fish expressing EGFP in endothelial cells (Tg(flk1:EGFP)) were used to facilitate visualization of the developing vasculature. In control experiments embryos were treated with 0.1% DMSO (vehicle). At the time of analyses (24 hpf) developing vessels normally migrated from the lateral plate mesoderm to the midline and formed the vascular cord, subsequently forming the dorsal aorta and the posterior cardinal vein and followed by the formation of intersegmental vessels at designated branch points (FIG. 6b).

Another data set concerns retinal vasculature. Kind of data set: Mouse model of oxygen-induced retinopathy. The data set is classed as in vivo, mice. The conditions noted are these: 100 or 50 pmoles injected at P12, analyzed at P16. From the text: The mouse model of oxygen-induced retinopathy mimics the retinopathy characteristic of proliferative retiopathy conditions such as retinopathy of prematurity and diabetic retinopathy. […] The resulting retinal hypoxia after day 12, when pups were brought back to 20% O2, induced excessive hypoxia-driven angiogenesis. A characteristic large avascular area at the center of the retina and excessive regrowth of superficial vessels (pre-retinal neovascular tufts) in the mid-peripheral region was observed. […] In contrast, inhibition of either Vegf or Vegfr2 in OIR experiments suppresses both neovascular tuft formation and revascularization.

For a further data set, the target named is EYA3 (Homo sapiens (Human), UniProt Q99504). The data set is described as follows: pNPP assay, full-length human recombinant EYA3. The data set is classed as biochemical. The conditions noted are these: pNPP substrate, full-length EYA3. From the text:
The catalytic domain of mouse Eya3 (“ED”, comprising residues 223-510 of Eya3) was purified as described by Rayapureddi, J. P. et al. (FEBS Lett 580, 3853-3859 (2006), incorporated by reference in its entirety). For full-length Eya3 (“hEYA3”), human Eya3 isoform 2 (representing the major species identified in human cell lines by mass spectrometry, expressed as residues 127-573 of NM_001990, isoform 1) was sub-cloned into pDEST565 to express a poly-histidine-Glutathione-S-transferase (His-GST) tagged fusion protein with a TVMV protease site. The protein was purified by glutathione-S-transferase affinity chromatography followed by TVMV cleavage, Ni-NTA chromatography, and finally size exclusion chromatography. […]
The compounds were then tested using full-length human recombinant, purified EYA3 and pNPP as a substrate. Compounds were dissolved in DMSO and diluted as needed. […] Reactions were incubated at 30° C. for 30 minutes and quenched with 100 mM EDTA pH 10. IC50 values were then calculated directly from regression curves using PRISM software. All reported values are the mean of two independent experiments.

In data set [5] the test system is HUVECs. The data set is described as follows: HUVEC cell viability assay (WST-8). The data set is classed as cell-based, human. The conditions noted are these: 3 days of exposure. The procedure: Additionally, a cell viability assay was conducted over 3 days of exposure to test compounds 1, 1a and 1g in order to assess both the possibility of immediate cellular toxicity as well as any effect on cell proliferation. HUVECs were seeded and equilibrated for 24 hours before addition of the test compounds. Cellular metabolic activity was measured at defined time-points using the tetrazolium dye WST-8 to quantify NAD(P)H-dependent cellular oxidoreductase enzyme activity.

Another data set deals with HUVEC cells. The data set is described as follows: Scratch wound healing assay, HUVEC. The data set is classed as cell-based, human. The conditions noted are these: counted 22 hours later. The procedure: Cells were plated and grown to confluency. Scratch wounds were made using a sterile pipette tip, the medium changed to remove any cellular debris, and fresh medium with either vehicle or test compound was introduced. The number of cells that migrated into the cleared space was counted 22 hours later.

Chain of EYA3 (Q99504 127-573): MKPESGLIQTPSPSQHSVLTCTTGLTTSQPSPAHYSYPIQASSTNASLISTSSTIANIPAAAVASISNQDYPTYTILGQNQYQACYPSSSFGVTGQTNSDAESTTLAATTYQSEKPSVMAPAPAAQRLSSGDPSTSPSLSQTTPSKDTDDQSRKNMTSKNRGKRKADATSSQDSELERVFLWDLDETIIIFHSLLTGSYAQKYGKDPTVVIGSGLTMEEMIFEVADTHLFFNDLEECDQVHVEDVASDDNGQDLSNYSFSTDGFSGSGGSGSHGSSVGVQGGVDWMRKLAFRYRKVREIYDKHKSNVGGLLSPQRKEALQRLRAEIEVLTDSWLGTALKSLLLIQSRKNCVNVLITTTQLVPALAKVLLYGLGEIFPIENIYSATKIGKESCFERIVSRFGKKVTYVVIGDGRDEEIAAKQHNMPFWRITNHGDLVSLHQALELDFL
Chain of PTP1B (P18031 whole entry, species assumed, the tested form may be a part): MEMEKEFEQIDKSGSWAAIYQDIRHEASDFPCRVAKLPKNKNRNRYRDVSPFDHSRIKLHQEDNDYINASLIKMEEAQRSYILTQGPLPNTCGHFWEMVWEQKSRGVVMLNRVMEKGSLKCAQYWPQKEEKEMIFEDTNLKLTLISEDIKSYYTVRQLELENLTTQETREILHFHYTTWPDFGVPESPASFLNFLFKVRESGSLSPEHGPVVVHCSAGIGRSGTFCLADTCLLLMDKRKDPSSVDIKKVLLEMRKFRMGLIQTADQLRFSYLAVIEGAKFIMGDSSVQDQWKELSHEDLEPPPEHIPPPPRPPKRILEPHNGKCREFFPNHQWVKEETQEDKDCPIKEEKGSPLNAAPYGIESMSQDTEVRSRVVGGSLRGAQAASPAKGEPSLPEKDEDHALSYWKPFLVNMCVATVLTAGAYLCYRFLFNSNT

On to `CC(O)CCc1oc2ccccc2c1C(=O)c1cc(I)c(O)c(I)c1` (centres unmarked) [Compound 2a], for which, in the data set with HUVECs [1], the “tube formation on Matrigel” value is listed as “did not show significant attenuation of tube formation”.

With `CCCCc1oc2ccccc2c1C(=O)c1ccc(O)cc1` [Compound 1b], half-maximal inhibition against PTP1B (IC50) required 71.4 µM. The cell migration result in the data set on MCF10A(EYA2) cells is given as “significantly inhibited cell migration”. Moreover, in the data set with HUVECs [1] (7.5 μM), the tubulogenesis inhibition result is recorded as “effective at the highest concentrations tested”. Besides, the “sprout length and microvascular density of aortic rings” value with mouse aortic rings (5 μM, 10 days) was “shorter sprouts and significantly lower microvascular density”. Also, the HUVEC cell motility result in the data set on HUVECs [2] is “attenuated HUVEC cell motility”. The HUVEC cell proliferation entry in the data set with HUVECs [3] is “no effect on cell proliferation”. Besides, the “intersegmental vessels in zebrafish embryos” value in [4] is recorded as “reduced the number of intersegmental vessels, but were less potent”. Further, the “formation of neovascular tufts” value with retinal vasculature is given as “Significant reduction in the formation of neovascular tufts”.

For `Cc1oc2ccccc2c1C(=O)c1cc(I)c(O)c(I)c1` [Compound 1d], on EYA3, the IC50 amounted to 8.3 µM. The “tube formation on Matrigel” value in the data set with HUVECs [1] is reported as “did not show significant attenuation of tube formation”.

For the compound `CC(O)Cc1oc2ccccc2c1C(=O)c1cc(I)c(O)c(I)c1` (centres unmarked) [Compound 1e], the IC50 at EYA3 came to 13.8 µM.

For `Cc1oc2ccccc2c1C(=O)c1ccc(O)cc1` [Compound 1k], the IC50 at EYA3 worked out at 81.1 µM.

As for `CCCCc1oc2ccccc2c1C(=O)c1cc(I)c(O)c(I)c1` [Compound 2], the “tube formation on Matrigel” value in the data set with HUVECs [1] is reported as “did not show significant attenuation of tube formation”.

Regarding `CC(O)c1oc2ccccc2c1C(=O)c1cc(Br)c(O)c(Br)c1` (centres unmarked) [Compound 1i], on EYA3, the IC50 was 41.9 µM.

On to `Cc1oc2ccccc2c1C(=O)c1ccc(O)c(I)c1` [Compound 1f], for which, on EYA3, the IC50 was determined as 17.5 µM. Besides, in the data set with HUVECs [1], the “tube formation on Matrigel” value was “did not show significant attenuation of tube formation”.

Consider `CCc1oc2cc(O)ccc2c1C(=O)c1cc(Br)c(O)c(Br)c1` [Compound 1g], for which the IC50 on EYA3 came to 27.2 µM. In the data set on HUVECs [5], the “reduction in cell proliferation” value was “over 50%”. Further, the “reduction of cell migration” value in the data set with HUVEC cells is listed as roughly 80%. For the same compound, the “tube formation on Matrigel” value with HUVECs [1] is given as “much stronger inhibitory effect than compound 1a”. For the same compound, the aortic ring sprouting result in the data set with mouse aortic rings (initially assayed at 7.5 μM) was “most potent inhibitor”.

With `CCc1oc2ccc(O)cc2c1C(=O)c1cc(Br)c(O)c(Br)c1` [Compound 1h], the IC50 at EYA3 amounted to 40.8 µM. Besides, in the data set with HUVECs [1], the “tube formation on Matrigel” value is given as “did not show significant attenuation of tube formation”.

In the case of `CCc1oc2ccc(O)cc2c1C(=O)c1ccc(O)cc1` [Compound 1j], the IC50 at EYA3 turned out to be 73.1 µM.

Take `CCc1oc2ccccc2c1C(=O)c1cc(I)c(O)c(I)c1` [Compound 1c]: at EYA3, the IC50 stood at 3.4 µM.
